Results as given in patent publication US20230265116A1, “DEGRADATION OF (EGFR) BY CONJUGATION OF EGFR INHIBITORS WITH E3 LIGASE LIGAND AND METHODS OF USE” (BEIGENE, LTD., priority 2020, published 2023).

How the values were obtained:
[1] = molecular target: T1, EGFR L858R/T790M/C797S (BaF3-LTC cells) (Homo sapiens, UniProt P00533, C797S/L858R/T790M); experiment: EGFR degradation HTRF assay, BaF3-LTC cells; format: cell-based; conditions: BaF3-LTC cells; for DC50: EGFR degradation, IC50 (DC50) from curve fit, read-out: DC50(nM) BaF3-LTC; for Dmax: maximum percentage of inhibition (degradation), read-out: Dmax (%) BaF3-LTC
T1 construct: expressed in transfected cells; host or cells: BaF3
T1 sequence (P00533 25-1210 T790M/C797S/L858R): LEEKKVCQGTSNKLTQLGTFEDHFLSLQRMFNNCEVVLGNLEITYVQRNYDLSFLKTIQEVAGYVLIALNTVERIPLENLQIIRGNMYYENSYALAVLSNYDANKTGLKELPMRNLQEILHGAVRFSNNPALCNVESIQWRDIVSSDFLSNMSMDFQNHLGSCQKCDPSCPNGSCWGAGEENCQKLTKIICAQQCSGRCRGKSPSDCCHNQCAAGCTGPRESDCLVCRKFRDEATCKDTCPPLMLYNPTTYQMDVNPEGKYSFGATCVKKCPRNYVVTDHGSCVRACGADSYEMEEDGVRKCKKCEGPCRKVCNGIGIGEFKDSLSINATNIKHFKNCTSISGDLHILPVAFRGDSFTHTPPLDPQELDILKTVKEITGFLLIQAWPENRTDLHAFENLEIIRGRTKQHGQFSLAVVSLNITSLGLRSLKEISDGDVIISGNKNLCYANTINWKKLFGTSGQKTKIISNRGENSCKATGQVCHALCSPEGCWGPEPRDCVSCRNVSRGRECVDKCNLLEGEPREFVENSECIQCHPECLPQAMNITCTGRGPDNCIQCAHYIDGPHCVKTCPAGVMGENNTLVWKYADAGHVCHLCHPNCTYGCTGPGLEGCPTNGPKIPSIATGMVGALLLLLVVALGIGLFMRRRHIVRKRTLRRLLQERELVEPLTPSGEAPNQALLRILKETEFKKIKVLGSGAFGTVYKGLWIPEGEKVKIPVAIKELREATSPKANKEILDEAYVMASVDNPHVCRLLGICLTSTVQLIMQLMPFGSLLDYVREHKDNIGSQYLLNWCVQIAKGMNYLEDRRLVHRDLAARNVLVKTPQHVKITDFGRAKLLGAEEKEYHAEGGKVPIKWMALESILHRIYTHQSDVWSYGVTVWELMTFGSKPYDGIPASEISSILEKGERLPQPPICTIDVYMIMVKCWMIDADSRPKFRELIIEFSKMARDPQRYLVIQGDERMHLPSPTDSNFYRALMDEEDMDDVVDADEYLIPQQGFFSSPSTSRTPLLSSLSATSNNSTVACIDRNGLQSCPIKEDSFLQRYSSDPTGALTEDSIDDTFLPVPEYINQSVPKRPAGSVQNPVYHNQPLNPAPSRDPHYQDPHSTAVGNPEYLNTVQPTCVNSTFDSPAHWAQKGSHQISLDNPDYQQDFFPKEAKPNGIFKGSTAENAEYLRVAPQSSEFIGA
Outline: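 EGFR remaining after a 16 h, 37 °C exposure (8 doses, 5-fold steps from 10 uM final, 0.2% DMSO) was quantified by HTRF antibodies in cell lysate. Percent inhibition relative to DMSO control was fitted by four-parameter logistic to give DC50; Dmax denotes maximal degradation.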

[2] = system: EGFR Del19/T790M/C797S (H1975-clone #28); experiment: EGFR degradation HTRF assay, H1975-clone #28 DTC cells; format: cell-based; conditions: H1975 # 28 DTC cells; for DC50: EGFR degradation, IC50 (DC50) from curve fit, read-out: DC50(nM) H1975 # 28 DTC; for Dmax (%) H1975 # 28 DTC: maximum percentage of inhibition (degradation)
Outline: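 Compounds (top 10 uM, 5-fold, 8 points, 0.2% DMSO) incubated 16 h at 37 °C on homozygous clones: #23 Del19/C797S, #28 Del19/T790M/C797S, exogenous EGFR only in H1975. HTRF on lysates quantified remaining EGFR relative to DMSO; four-parameter fit gave DC50 and Dmax.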

Row | Compound | DC50 [1] [nM] | Dmax [1] [%] | DC50 [2] [nM] | Dmax (%) H1975 # 28 DTC [2] [%]
1 | CCOc1cc(N2CCC(N3CCN(CCCc4cc(F)c([C@H]5CCC(=O)NC5=O)c(F)c4)CC3)CC2)c(CC)cc1Nc1ncc(Br)c(Nc2cc(F)c3nc(CC)ccc3c2P(C)(C)=O)n1 [Example 567, (R)-3-(4-(3-(4-(1-(4-((5-bromo-4-((5-(dimethylphosphoryl)-2-ethyl-8-fluoroquinolin-6-yl)amino)pyrimidin-2-yl)amino)-5-ethoxy-2-ethylphenyl)piperidin-4-yl)piperazin-1-yl)propyl)-2,6-difluorophenyl)piperidine-2,6-dione] | 13.2 | 92 | 3.01 | 56.23
2 | CCc1ccc2c(P(C)(C)=O)c(Nc3nc(Nc4cc(C)c(N5CCC(N6CCN(CCc7ccc8c(c7)oc(=O)n8C7CCC(=O)NC7=O)CC6)CC5)cc4OC4CC4)ncc3Br)ccc2n1 (stereo not shown) [Example 568, 3-(6-(2-(4-(1-(4-((5-bromo-4-((5-(dimethylphosphoryl)-2-ethylquinolin-6-yl)amino)pyrimidin-2-yl)amino)-5-cyclopropoxy-2-methylphenyl)piperidin-4-yl)piperazin-1-yl)ethyl)-2-oxobenzo[d]oxazol-3(2H)-yl)piperidine-2,6-dione] | 10.4 | 87 | 2.38 | 91.62
3 | [2H]C1([2H])CC([2H])(c2c(F)cc(CCN3CCN(C4CCN(c5cc(OCC)c(Nc6ncc(Br)c(Nc7ccc8nc(C)ccc8c7P(C)(C)=O)n6)cc5CC)CC4)CC3)cc2F)C(=O)NC1=O (stereo not shown) [Example 570, 3-(4-(2-(4-(1-(4-((5-bromo-4-((5-(dimethylphosphoryl)-2-methylquinolin-6-yl)amino)pyrimidin-2-yl)amino)-5-ethoxy-2-ethylphenyl)piperidin-4-yl)piperazin-1-yl)ethyl)-2,6-difluorophenyl)piperidine-2,6-dione-3,5,5-d3] | 20.5 |  | 3.03 | 76.54
4 | CCc1cc(Nc2ncc(Br)c(Nc3ccc4c(=O)n(C5CC5)ncc4c3P(C)(C)=O)n2)c(OC)cc1N1CCC(N2CCN(CCC3CCN(c4cc(F)c([C@H]5CCC(=O)NC5=O)c(F)c4)CC3)CC2)CC1 [Example 578, (R)-3-(4-(4-(2-(4-(1-(4-((5-bromo-4-((2-cyclopropyl-5-(dimethylphosphoryl)-1-oxo-1,2-dihydrophthalazin-6-yl)amino)pyrimidin-2-yl)amino)-2-ethyl-5-methoxyphenyl)piperidin-4-yl)piperazin-1-yl)ethyl)piperidin-1-yl)-2,6-difluorophenyl)piperidine-2,6-dione] | 12.2 | 96.5 | 3.11 | 87.5
5 | CCOc1cc(N2CCC(N3CCN(CC4CCN(c5cccc6c5oc(=O)n6C5CCC(=O)NC5=O)CC4)CC3)CC2)c(CC)cc1Nc1ncc(Br)c(Nc2ccc3nc(CC)ccc3c2P(C)(C)=O)n1 (stereo not shown) [Example 581, 3-(7-(4-((4-(1-(4-((5-bromo-4-((5-(dimethylphosphoryl)-2-ethylquinolin-6-yl)amino)pyrimidin-2-yl)amino)-5-ethoxy-2-ethylphenyl)piperidin-4-yl)piperazin-1-yl)methyl)piperidin-1-yl)-2-oxobenzo[d]oxazol-3(2H)-yl)piperidine-2,6-dione] | 6.9 | 88.5 | 1.36 | 72.5
6 | CCOc1cc(N2CCC(N3CCN(CC4CCN(c5cccc6c5oc(=O)n6C5CCC(=O)NC5=O)CC4)CC3)CC2)c(CC)cc1Nc1ncc(Br)c(Nc2ccc3c(=O)n(CC)ncc3c2P(C)(C)=O)n1 (stereo not shown) [Example 582, 3-(7-(4-((4-(1-(4-((5-bromo-4-((5-(dimethylphosphoryl)-2-ethyl-1-oxo-1,2-dihydrophthalazin-6-yl)amino)pyrimidin-2-yl)amino)-5-ethoxy-2-ethylphenyl)piperidin-4-yl)piperazin-1-yl)methyl)piperidin-1-yl)-2-oxobenzo[d]oxazol-3(2H)-yl)piperidine-2,6-dione] | 8.54 | 93.1 | 1.06 | 79.64
7 | CCc1ccc2c(P(C)(C)=O)c(Nc3nc(Nc4cc(CC)c(N5CCC(N6CCC(CCc7cc(F)c(C8CCC(=O)NC8=O)c(F)c7)CC6)CC5)cc4OC)ncc3Br)ccc2n1 (stereo not shown) [Example 583, 3-(4-(2-(1′-(4-((5-bromo-4-((5-(dimethylphosphoryl)-2-ethylquinolin-6-yl)amino)pyrimidin-2-yl)amino)-2-ethyl-5-methoxyphenyl)-[1,4′-bipiperidin]-4-yl)ethyl)-2,6-difluorophenyl)piperidine-2,6-dione] | 17 | 92.9 | 2.7 | 76.91
8 | CCc1ccc2c(P(C)(C)=O)c(Nc3nc(Nc4cc(CC)c(N5CCC(N6CCN(CCc7cccc8c7n(C)c(=O)n8C7CCC(=O)NC7=O)CC6)CC5)cc4OC4CC4)ncc3Br)ccc2n1 (stereo not shown) [Example 585, 3-(4-(2-(4-(1-(4-((5-bromo-4-((5-(dimethylphosphoryl)-2-ethylquinolin-6-yl)amino)pyrimidin-2-yl)amino)-5-cyclopropoxy-2-ethylphenyl)piperidin-4-yl)piperazin-1-yl)ethyl)-3-methyl-2-oxo-2,3-dihydro-1H-benzo[d]imidazol-1-yl)piperidine-2,6-dione] | 2.5 | 96.2 | 0.695 | 79.08

More lines, main results first:

Row | DC50 [1] [nM] | Dmax [1] [%] | DC50 [2] [nM] | Compound | Dmax (%) H1975 # 28 DTC [2] [%]
9 | 3.85 | 94.1 | 0.958 | CCc1cc(Nc2ncc(Br)c(Nc3ccc4cc(C)ncc4c3P(C)(C)=O)n2)c(OC)cc1N1CCC(N2CCN(C(=O)[C@@H]3CCN(c4cc(F)c([C@H]5CCC(=O)NC5=O)c(F)c4)C3)CC2)CC1 [Example 586, (R)-3-(4-((R)-3-(4-(1-(4-((5-bromo-4-((8-(dimethylphosphoryl)-3-methylisoquinolin-7-yl)amino)pyrimidin-2-yl)amino)-2-ethyl-5-methoxyphenyl)piperidin-4-yl)piperazine-1-carbonyl)pyrrolidin-1-yl)-2,6-difluorophenyl)piperidine-2,6-dione] | 84.73
10 | 18.4 | 87.5 | 1.94 | CCOc1cc(N2CCC(N3CCN(CCc4cc(F)c([C@H]5CCC(=O)NC5=O)c(F)c4)CC3)CC2)c(CC)cc1Nc1ncc(Br)c(Nc2ccc3nc(CC)c(F)cc3c2P(C)(C)=O)n1 [Example 588, (R)-3-(4-(2-(4-(1-(4-((5-bromo-4-((5-(dimethylphosphoryl)-2-ethyl-3-fluoroquinolin-6-yl)amino)pyrimidin-2-yl)amino)-5-ethoxy-2-ethylphenyl)piperidin-4-yl)piperazin-1-yl)ethyl)-2,6-difluorophenyl)piperidine-2,6-dione] | 84.46
11 | 11.8 | 91.7 | 0.697 | CCOc1cc(N2CCC(N3CCN(CC4CN(c5cc(F)c([C@H]6CCC(=O)NC6=O)c(F)c5)C4)CC3)CC2)c(CC)cc1Nc1ncc(Br)c(Nc2ccc3nc(CC)ncc3c2P(C)(C)=O)n1 [Example 590, (R)-3-(4-(3-((4-(1-(4-((5-bromo-4-((5-(dimethylphosphoryl)-2-ethylquinazolin-6-yl)amino)pyrimidin-2-yl)amino)-5-ethoxy-2-ethylphenyl)piperidin-4-yl)piperazin-1-yl)methyl)azetidin-1-yl)-2,6-difluorophenyl)piperidine-2,6-dione] | 87.82
12 | 72.7 | 75 | 1.57 | CCOc1cc(N2CCC(N3CCN(CCc4cc(F)c([C@H]5CCC(=O)NC5=O)c(F)c4)CC3)CC2)c(CC)cc1Nc1nccc(Nc2cc(F)c3nc(CC)ccc3c2P(C)(C)=O)n1 [Example 591, (R)-3-(4-(2-(4-(1-(4-((4-((5-(dimethylphosphoryl)-2-ethyl-8-fluoroquinolin-6-yl)amino)pyrimidin-2-yl)amino)-5-ethoxy-2-ethylphenyl)piperidin-4-yl)piperazin-1-yl)ethyl)-2,6-difluorophenyl)piperidine-2,6-dione] | 75.79
13 | 12.5 | 83.7 | 1.18 | CCOc1cc(N2CCC(N3CCN(CCc4ccc(F)c5c4oc(=O)n5C4CCC(=O)NC4=O)CC3)CC2)c(CC)cc1Nc1ncc(Br)c(Nc2cc(F)c3nc(CC)ccc3c2P(C)(C)=O)n1 (stereo not shown) [Example 592, 3-(7-(2-(4-(1-(4-((5-bromo-4-((5-(dimethylphosphoryl)-2-ethyl-8-fluoroquinolin-6-yl)amino)pyrimidin-2-yl)amino)-5-ethoxy-2-ethylphenyl)piperidin-4-yl)piperazin-1-yl)ethyl)-4-fluoro-2-oxobenzo[d]oxazol-3(2H)-yl)piperidine-2,6-dione] | 82.2
14 | 13.2 | 82.6 | 1.26 | CCOc1cc(N2CCC(N3CCN(CCc4c(C)c(F)cc5c4oc(=O)n5C4CCC(=O)NC4=O)CC3)CC2)c(CC)cc1Nc1ncc(Br)c(Nc2cc(F)c3nc(CC)ccc3c2P(C)(C)=O)n1 (stereo not shown) [Example 593, 3-(7-(2-(4-(1-(4-((5-bromo-4-((5-(dimethylphosphoryl)-2-ethyl-8-fluoroquinolin-6-yl)amino)pyrimidin-2-yl)amino)-5-ethoxy-2-ethylphenyl)piperidin-4-yl)piperazin-1-yl)ethyl)-5-fluoro-6-methyl-2-oxobenzo[d]oxazol-3(2H)-yl)piperidine-2,6-dione] | 76.9
